Results as given in patent US20110105496A1, “Methods For The Treatment Of Myosin Heavy Chain-Mediated Conditions Using 4,7-Dihydrothieno[2,3-B]Pyridine Compounds” (priority 2005, published 2011).

Tested on: alpha-MyHC
Experiment: alpha-MyHC cytoblot process in neonatal rat ventricular myocytes (NRVM)
Assay type: cell-based
Details: NRVM, 72 hours; for EC50: alpha-MyHC cytoblot; for Max Plateau: maximum of dose response fit
Protocol: In vitro activity of each compound is measured using the alpha-MyHC cytoblot process. Briefly, neonatal rat ventricular myocytes (NRVM) at 120,000 cells/ml in HyQ DME/High modified culture media supplemented with 10% charcoal/dextran treated FBS, 0.1% Nutridoma-SP, 1:100 MEM non-essential amino acids, 1:50 MEM amino acids solution w/o L-Gln, 1 mM sodium pyruvate and 1:100 P/S/G, are plated on gelatin coated sterile 384-well plates (Costar 3712) at 6,000 cells per well. Cells are incubated overnight at 37° C. in 5% CO2 100% humidity. Following overnight growth the media is changed to HyQ DME/High modified culture media supplemented with 0.3% Nutridoma-SP, 1:100 MEM non-essential amino acids, 1:50 MEM amino acids solution w/o L-Gln, 1 mM sodium pyruvate and 1:100 P/S/G. Cells are then dosed with serial dilutions of each compound in DMSO. Each concentration in the dose range is dosed in quadruplicate. Dosing is done in such a way so that the final DMSO concentration was 0.44%. Compound dilutions are 3-fold with the final top concentration of 10 uM. […] Following dosing, the cells are incubated for 72 hours at 37° C. in 5% CO2 100% humidity and then processed with the cytoblot method. Briefly, cell media is aspirated and cell monolayers washed with PBS and fixed with 100% methanol for 30 minutes. Fixed cells are then blocked with PBS, 0.05% Tween-20, 1% BSA, for 1 hour. Following blocking, cells are incubated with primary alpha-MyHC-specific antibody antibody (1:30 dilution of BA-G5 hybridoma conditioned media, ATCC HB276) for 1 hour. Following incubation with the primary antibody, cells are washed with PBS, 0.05% Tween-20, 1% BSA and incubated with secondary antibody (1:1000 dilution, goat-anti-mouse HRP, Southern Biotech, 1031-05) for 1 hour. Following incubation with the secondary antibody, wells are washed and incubated in SuperSignal, West Dura HRP-luminescence substrate for 30 seconds under shaking at room temperature. Luminescence is measured using a Packard Fusion plate reader. […] RLU values are converted into per cent fraction of low control and dose responses are fitted to a sigmoidal 4-parameter equation (XLFit, IDBS) where the EC50 and Max Plateau values were extracted. […] Max Plateau is the […] maximum value determined by the dose response fit.

[1] = Table 1, low control = vehicle only

Row | Structure (SMILES) | EC50 (Table 1, mean ± spread) [nM] | Max Plateau [1] | EC50 (Table 2 (esters)) [nM] | Max Plateau (Table 2 (esters))
1 | CCC(=O)C1=C(CC)Nc2sc(C(=O)c3ccc(Cl)c(Cl)c3)c(N)c2C1c1cccnc1 (stereo not shown) [Compound 75] | 61.3 | 226.71 ± 40.80 per cent fraction of low control |  | 
2 | CCC(=O)C1=C(CC)Nc2sc(C(=O)c3cc(F)cc(F)c3)c(N)c2C1c1ccccc1 (stereo not shown) [Compound 76] | 24.2 | 230.70 ± 23.22 per cent fraction of low control |  | 
3 | CCC(=O)C1=C(CC)Nc2sc(C(=O)c3cccc(C(=O)O)c3)c(N)c2C1c1ccccc1 (stereo not shown) [Compound 77] | 2140 | 220.00 ± 10.00 per cent fraction of low control |  | 
4 | CCC(=O)C1=C(CC)Nc2sc(C(=O)c3ccccc3)c(N)c2C1c1ccccc1F (stereo not shown) [Compound 78] | 6.77 | 269.77 ± 35.30 per cent fraction of low control |  | 
5 | CCC(=O)C1=C(CC)Nc2sc(C(=O)c3ccc(F)cc3)c(N)c2C1c1ccccc1 (stereo not shown) [Compound 79] | 40.8 | 241.90 ± 15.79 per cent fraction of low control |  | 
6 | CCC(=O)C1=C(CC)Nc2sc(C(=O)c3ccc(Cl)cc3)c(N)c2C1c1ccccc1 (stereo not shown) [Compound 80] | 103 | 226.13 ± 5.25 per cent fraction of low control |  | 
7 | CCC(=O)C1=C(CC)Nc2sc(C(=O)c3ccc(Cl)c(Cl)c3)c(N)c2C1c1ccc(OC)cc1F (stereo not shown) [Compound 81] | 350 | 184.00 ± 15.51 per cent fraction of low control |  | 
8 | CCC(=O)C1=C(CC)Nc2sc(C(=O)c3ccccc3Cl)c(N)c2C1c1ccccc1 (stereo not shown) [Compound 82] | 14.8 | 245.96 ± 30.73 per cent fraction of low control |  | 
9 | CCC(=O)C1=C(CC)Nc2sc(C(=O)c3ccc(Cl)c(Cl)c3)c(N)c2C1c1ccc(O)cc1Cl (stereo not shown) [Compound 83] | 0.249 | 274.88 ± 44.56 per cent fraction of low control |  | 
10 | CCC(=O)C1=C(CC)Nc2sc(C(=O)c3ccc(Cl)c(Cl)c3)c(N)c2C1c1cccc(F)c1 (stereo not shown) [Compound 84] | 5.4 | 242.72 ± 19.34 per cent fraction of low control |  | 
11 | CCC(=O)C1=C(CC)Nc2sc(C(=O)c3ccc(Cl)c(Cl)c3)c(N)c2C1c1cccc2ccccc12 (stereo not shown) [Compound 85] |  | 105.90 ± 6.18 per cent fraction of low control |  | 
12 | CCCC(=O)C1=C(CCC)Nc2sc(C(=O)c3ccc(Cl)c(Cl)c3)c(N)c2C1c1ccccc1 (stereo not shown) [Compound 86] | 627 | 131.26 ± 2.34 per cent fraction of low control |  | 
13 | CCCC(=O)C1=C(CCC)Nc2sc(C(=O)c3ccc(Cl)c(Cl)c3)c(N)c2C1c1ccccc1F (stereo not shown) [Compound 87] | 217 | 187.66 ± 12.24 per cent fraction of low control |  | 
14 | CCC(=O)C1=C(CC)Nc2sc(C(=O)c3ccc(Cl)c(Cl)c3)c(N)c2C1c1ccc2ccccc2c1 (stereo not shown) [Compound 88] |  | 113.45 ± 11.92 per cent fraction of low control |  | 
15 | CCC(=O)C1=C(CC)Nc2sc(C(=O)c3ccc(Cl)c(C)c3)c(N)c2C1c1ccccc1 (stereo not shown) [Compound 89] | 9.69 | 230.09 ± 19.81 per cent fraction of low control |  | 
16 | CCC(=O)C1=C(CC)Nc2sc(C(=O)c3cc(C(C)(C)C)c(O)c(C(C)(C)C)c3)c(N)c2C1c1ccccc1 (stereo not shown) [Compound 90] |  | 300.00 ± 0.00 per cent fraction of low control |  | 
17 | CCCC(=O)C1=C(CCC)Nc2sc(C(=O)c3ccc(Cl)cc3Cl)c(N)c2C1c1ccccc1F (stereo not shown) [Compound 91] | 198 | 143.39 ± 20.69 per cent fraction of low control |  | 
18 | CCCC(=O)C1=C(CCC)Nc2sc(C(=O)c3cc(Cl)ccc3Cl)c(N)c2C1c1ccccc1F (stereo not shown) [Compound 92] | 50.5 | 189.00 ± 25.40 per cent fraction of low control |  | 

Row | Structure (SMILES) | EC50 (Table 1, mean ± spread) [nM] | Max Plateau [1] | EC50 (Table 2 (esters)) [nM] | Max Plateau (Table 2 (esters))
19 | CCCC(=O)C1=C(CCC)Nc2sc(C(=O)c3cc(Cl)ccc3Cl)c(N)c2C1c1ccccc1 (stereo not shown) [Compound 94] | 118 | 153.83 ± 13.14 per cent fraction of low control |  | 
20 | CCCC(=O)C1=C(CCC)Nc2sc(C(=O)c3ccc(F)c(F)c3)c(N)c2C1c1ccccc1 (stereo not shown) [Compound 95] | 610 | 147.01 ± 6.43 per cent fraction of low control |  | 
21 | CCC(=O)C1=C(CC)Nc2sc(C(=O)c3cccc([N+](=O)[O-])c3)c(N)c2C1c1ccccc1 (stereo not shown) [Compound 96] | 17.1 | 254.87 ± 72.67 per cent fraction of low control |  | 
22 | CCC(=O)C1=C(CC)Nc2sc(C(=O)c3cccc([N+](=O)[O-])c3)c(N)c2C1c1ccccc1F (stereo not shown) [Compound 97] | 1.64 | 247.24 ± 38.88 per cent fraction of low control |  | 
23 | CCC(=O)C1=C(CC)Nc2sc(C(=O)c3ccc(Cl)c(Cl)c3)c(N)c2C1c1ccnc(F)c1 (stereo not shown) [Compound 98] | 4.99 | 255.02 ± 32.01 per cent fraction of low control |  | 
24 | CCC(=O)C1=C(CC)Nc2sc(C(=O)c3ccc(Cl)c(Cl)c3)c(N)c2C1c1ccnc(Cl)c1 (stereo not shown) [Compound 99] | 5.23 | 264.37 ± 33.84 per cent fraction of low control |  | 
25 | CCC(=O)C1=C(CC)Nc2sc(C(=O)c3ccc(Cl)c(Cl)c3)c(N)c2C1c1cc(F)cc(F)c1 (stereo not shown) [Compound 100] | 5.73 | 262.04 ± 31.65 per cent fraction of low control |  | 
26 | CCC(=O)C1=C(CC)Nc2sc(C(=O)c3ccc(F)c(F)c3)c(N)c2C1c1cc(F)cc(F)c1 (stereo not shown) [Compound 101] | 3.72 | 230.49 ± 17.13 per cent fraction of low control |  | 
27 | CCC(=O)C1=C(CC)Nc2sc(C(=O)c3ccc(F)c(F)c3)c(N)c2C1c1ccnc(F)c1 (stereo not shown) [Compound 102] | 4.18 | 269.88 ± 36.90 per cent fraction of low control |  | 
28 | CCC(=O)C1=C(CC)Nc2sc(C(=O)c3cccnc3)c(N)c2C1c1ccnc(F)c1 (stereo not shown) [Compound 103] | 10.5 | 254.65 ± 31.26 per cent fraction of low control |  | 
29 | CCC(=O)C1=C(CC)Nc2sc(C(=O)c3ccc(Cl)c(Cl)c3)c(N)c2C1c1ccncc1 (stereo not shown) [Compound 104, 1-[3-amino-2-(3,4 dichloro-benzoyl)-6-ethyl-4 pyridin-4-yl-4,7 dihydro-thieno[2,3-b]pyridin-5-yl]-propan-1-one] |  | 242.77 ± 33.52 per cent fraction of low control |  | 
30 | CCC(=O)C1=C(CC)Nc2sc(C(=O)c3ccccc3)c(N)c2C1c1cc(F)cc(F)c1 (stereo not shown) [Compound 105] | 4.38 | 273.18 ± 37.33 per cent fraction of low control |  | 
31 | CCC(=O)C1=C(CC)Nc2sc(C(=O)c3ccccc3Br)c(N)c2C1c1ccccc1 (stereo not shown) [Compound 106] | 8.93 | 244.21 ± 29.53 per cent fraction of low control |  | 
32 | CCC(=O)C1=C(CC)Nc2sc(C(=O)c3c(Cl)cccc3Cl)c(N)c2C1c1ccccc1F (stereo not shown) [Compound 107] | 1.67 | 273.85 ± 29.06 per cent fraction of low control |  | 
33 | CCC(=O)C1=C(CC)Nc2sc(C(=O)c3ccc(F)c(F)c3)c(N)c2C1c1ccccc1F (stereo not shown) [Compound 108, 1-[3-amino-2-(3,4 difluoro-benzoyl)-6-ethyl-4-(2 fluoro-phenyl)-4,7 dihydro-thieno[2,3-b]pyridine-5-yl]propan-1-one] |  | 266.30 ± 58.14 per cent fraction of low control |  | 
34 | CCC(=O)C1=C(CC)Nc2sc(C(=O)c3ccc(C#N)cc3)c(N)c2C1c1ccccc1 (stereo not shown) [Compound 112] |  | 266.67 ± 57.74 per cent fraction of low control |  | 
35 | CCOC(=O)C1=C(C)Nc2sc(C(=O)c3ccc(Cl)c(Cl)c3)c(N)c2C1c1ccccc1 (stereo not shown) [Compound 113] |  |  | 68 | 256.38 per cent fraction of low control
